{
  "source": "patent US20240245680A1",
  "about": "“Methods of Treating Retinal Vasculopathies” (Unity Biotechnology, Inc., priority 2021, published 2024)",
  "key": {"[1]": {"system": "Slc7a11 and Serpinf1 gene expression in retina", "assay": "Retinal Slc7a11 and Serpinf1 gene expression after IP dosing, normoxic and OIR neonatal mice", "format": "in vivo, mouse", "conditions": "IP 10, 30 or 90 mpk at P12, 4 or 24 hours", "experimental": "(§1) To investigate the pharmacodynamic effect of Compound 39, it was intraperitoneally administrated at either 10, 30, or 90 mpk in both normoxic and OIR neonatal mice. The dosing formulation was based on a vehicle comprising 1% Pluronic F-68/1% HPMC, 15% captisol. Both normoxic and OIR neonates were treated at P12 (the end of hyperoxia) and taken down after 4 hours, or 24 hours later at P13. Retinas were dissected, and RNA was extracted using a fully automated, spin-column-based nucleic acid extraction instrument (Qiacube Connect™). qPCR was performed using standard TaqMan reagents and conditions. Slc7a11, Serpinf1, and Tbp (control) gene expression was determined using primers Mm00442530_m1, Mm00441270_m1, and Mm01277042_m1, respectively."}, "[2]": {"system": "ATF4 and DDIT3 gene expression in retina", "assay": "Retinal Atf4 and Ddit3 gene expression after IP dosing, normoxic and OIR neonatal mice", "format": "in vivo, mouse", "conditions": "IP 10, 30 or 90 mpk at P12, 4 or 24 hours", "experimental": "as §1, with “Compound 39 was tested in an animal model that shares many hallmarks with human ischemic retinopathies, the oxygen-induced retinopathy (OIR) neonatal mouse. To” for “To”, “(IP) administered” for “administrated”, “mpk.” for “mpk in both normoxic and OIR neonatal mice.”, “TaqMan®” for “TaqMan”, “Atf4, Ddit3,” for “Slc7a11, Serpinf1,”, “primers: Mm00515324_m1, Mm00492097_m1,” for “primers Mm00442530_m1, Mm00441270_m1,”"}, "[3]": {"system": "cellular ATF4 protein", "assay": "ATF4-HiBiT reporter assay in H2122 cells (GCN2 pathway activation)", "format": "cell-based", "conditions": "five hours, quarter-log dilutions from 10 μM (FIG. 10A)", "experimental": "Without any limitations, such assays may be used to test other compounds for GCN2 pathway activation. Activating transcription factor 4 (ATF4) was C-terminally tagged in H2122 cells (CRL-5985™) with a high affinity luciferase complementation fragment (HiBiT) through a knock-in approach using CRISPR-Cas12a technology and a single-stranded oligo DNA nucleotides (ssODNs) template carrying the HiBiT tag. Following reporter cell-line generation (H2122 ATF4-HiBIT) cells were seeded in a 96-well plate at near confluency and treated the next day with Compound 39 for five hours. A dose response was generated using quarter-log dilutions using 10 μM as the starting concentration. The Nano-Glo® HiBiT Lytic Detection (Promega®) reagent was added after five hours and allowed for plate-based bioluminescent quantification of cellular ATF4 protein using an add-mix-read assay format. Peak activation of ATF4 expression was detected at ˜250 nM of Compound 39."}},
  "data": [
    {"smiles": "CNc1nc2ccc(-c3c(C)ccc(C(=O)c4c(-c5ccccc5)n(C)n(-c5ccccc5)c4=O)c3N)cc2s1", "note": "[Compound 39, 4-(2-Amino-4-methyl-3-(2-(methylamino)benzo[d]thiazol-6-yl)benzoyl)-1-methyl-2,5-diphenyl-1H-pyrazol-3(2H)-one]", "values": [
      {"measurement": "induction of retinal Slc7a11 gene expression", "setting": "[1]; normoxic and OIR neonatal mice (FIG. 12A)", "value": "dose-dependent induction"},
      {"measurement": "induction of retinal Serpinf1 gene expression", "setting": "[1]; normoxic and OIR neonatal mice (FIG. 12B)", "value": "dose-dependent induction"},
      {"measurement": "induction of ATF4 gene expression in retina", "setting": "[2]; normoxic and OIR neonates (FIG. 11A)", "value": "dose-dependent induction"},
      {"measurement": "induction of DDIT3 gene expression in retina", "setting": "[2]; normoxic and OIR neonates (FIG. 11B)", "value": "dose-dependent induction"},
      {"measurement": "concentration of peak activation of ATF4 expression", "setting": "[3]", "value": "~250", "unit": "nM"}
    ]}
  ]
}
